{
  "source": "ChEMBL document CHEMBL1137502",
  "about": "“Design and evaluation of analogues of the bacterial cell-wall peptidoglycan motif L-Lys-D-Ala-D-Ala for use in a vancomycin biosensor” (2007)",
  "system": "Staphylococcus aureus",
  "experiment": "Antibacterial activity against Staphylococcus aureus ATCC 25923 assessed as reduction of bacterial count by broth microdilution method",
  "format": "functional",
  "data": [
    {"molecule": "CN[C@H](CC(C)C)C(=O)N[C@H]1C(=O)N[C@@H](CC(N)=O)C(=O)N[C@H]2C(=O)N[C@H]3C(=O)N[C@H](C(=O)N[C@H](C(=O)O)c4cc(O)cc(O)c4-c4cc3ccc4O)[C@H](O)c3ccc(c(Cl)c3)Oc3cc2cc(c3O[C@@H]2O[C@H](CO)[C@@H](O)[C@H](O)[C@H]2O[C@H]2C[C@](C)(N)[C@H](O)[C@H](C)O2)Oc2ccc(cc2Cl)[C@H]1O", "note": "[VANCOMYCIN]", "values": [
      {"measurement": "Log10 cfu", "result": 1}
    ]}
  ]
}
